Laboratory results published in US20050220906A1, “Pharmaceutical composition for treating rheumatism and the preparation thereof” (priority 2002, published 2005).

What was measured:
[1] = Body weight of AA rats (prevention experiment); format: in vivo, SD rats; settings: 0.01 g/kg
Description: (§1) 72 isogenous SD rats of the same batch, half male and half female, 180˜220 g weight, were divided randomly into 6 groups. Each group has 12 rats. Every 6 rats lived in a cage. The perimeter of the double anklejoints and the feet of the rat were measured accurately and recorded as the normal value. All the rats were drenched by the same volume of the invented medicine on the correspondent concentration or the solution of the Xihuangqi by the gastic injection. 1 hour later, all the rats were injected with 0.1 ml Freund's complete adjuvant (FCA) under the skin of the left postpedes. In the next 30 days, all the rats were drenched with the correspondent medicine once a day on the same dosage. And in these days, the rats were measured of the perimeters of the double anklejoints and the feet once a day. In this experiment, the swelling degree (Δcm) equaled to the difference value of the perimeters measured after the FCA injection and before the FCA injection. (See the result in table 1.1 and 1.2) At the end of the experiment, the major organs of the rats were weighted. (See the table 1.3, 1.4)

[2] = Organ index of AA rats (Table 1.7); format: in vivo, SD rats; settings: 0.01 g/kg
Source text: (§2) 50 male SD rats were divided into 5 groups at random. The model building was same to the prevention experiment, but the correspondent medicines were drenched 13 days after the injection of the FCA. The medicines were drenched once a day for 2 weeks. The swelling degree (Δcm) was the difference of the perimeters between the value of first administration day and the other days.

[3] = Organ index of AA rats (prevention experiment); format: in vivo, SD rats
Description: as §1

[4] = test system: AA rats; assay: Therapeutic effect on AA: swelling degree; format: in vivo, SD rats; settings: 0.01 g/kg
Source text: as §2

[5] = test system: rat AA model; assay: Preventing effect on adjuvant arthritis (AA): swelling degree; format: in vivo, SD rats; settings: 0.01 g/kg
Description: as §1

[6] = test system: DTH caused by DNFB; assay: Delayed hypersensitivity (DTH) caused by DNFB in the mouse ear; format: in vivo, NIH mouse; settings: 0.003 g/kg, administration day 0˜5
Description: Each mouse was led to hypersensitivity reaction by using the 1% DNFB acetone solution on the dosage of 0.025 ml at the right place of the abdomen where the pilus had been cut yet. Using the same solution on the same place was to enhance the hypersensitivity reaction on the third day. On the fifth day, all the mice were smeared with the 1% DNFB edible oil solution at the mice's right ears on the dosage of 0.01 ml each. 24 hours later, all the mice were killed. The mouse's 2 ears were weighted by the torsion balance and the difference of the 2 ears was recorded as the DTH degree caused by the DNFB. The experiment was carried out on the different immune and administration processes.
The immune and administration processes is as following: [drawing 1]

[7] = test system: pleuritis induced by the carrageenan; assay: Carrageenan pleuritis: exudation and inflammatory cell aggregation; format: in vivo, mice; settings: 0.05 g/kg
Description: The mice were divided into 5 groups at random and injected with 0.5% Evans blue NS solution into the caudal vein on the dosage of 0.1 ml/10 g. Then the mice were injected with the 0.03 ml 1% carrageenan in the right chest cavity with the special syring niddle. 4 hours and 32 hours after the injection, the correspondent mice were killed and opend the obdominal cavity to expose the diaphragm. 2 ml of the lotion were injected to the chest cavity by 2 times with a 1 ml injector. The lotion was collected and saved in a test tube. 20 μl of the lotion collected was added into the 400 μl WBC dilution. The WBC in the mixed dilution was counted under the microscope. The rest of the lotion was centrifuged at 3000 rpm for 10 min. The supernate of the lotion was measured the OD at the wavelength of 600 nm. The OD value of the sample should be corrected with the correspondent OD value of the pure lotion. (See the result in table 9)

[8] = test system: capillary permeability; assay: Capillary permeability induced by acetic acid in the abdominal cavity; format: in vivo, NIH mice; settings: 0.15 g/kg, qd × 3
Description: 90 NIH mice, 18˜22 g weight, half male and half female, were divided into 9 groups and drenched with the correspondent medicine solutions of the same volumn. The medicines were drenched once a day for 3 days or just 1 time. 1 hour after the last administration, each mouse were injected with 0.7% HAC-NS solution into the abdominal cavity. At the same time, each mouse was injected with the 0.5% Evans blue-NS solution into the vessel on the dose of 0.1 ml/10 g. 30 min later; all the mice were killed by cervical disjoint. The abdominal cavity was opened and washed by the 5 ml NS. The NS used was collected and adjusted to 8 ml by the pure NS as the sample. The samples were centrifuged at 3000 rpm to get the supernate. The supernate was measured the OD at the wavelength at 590 nm. (See the result in table 8)

[9] = test system: macrophage; assay: CRBC phagocytosis of abdominal macrophages; format: in vivo, mouse; settings: 0.005 g/kg, 7 days
Description: 50 NIH mice, 18˜22 g weight, half male and half female, were divided into 5 groups and drenched with the correspondent medicine solutions on the same volumn. The administration was once a day for 7 days. 1 hour after the last administration, all the mice were injected with 0.2 ml 10% chick RBC into the abdominal carvity. 4 hours later, all the mice were killed and sampled the fluid in the abdomincal carvity. The liquor samples were dropped on the glass and counted the number of the macrophage which had phagocytized the CRBC and the number of the CRBC in one macrophage. (See the result in table 7)

[10] = test system: croton oil-induced swelling; assay: Croton oil-induced swelling of the ears; format: in vivo, NIH mice; settings: 0.003 g/kg, 3 days
Description: 60 NIH mice with weight of 18˜22 g, male and female accounting for half and half, were divided into 6 groups, which were drenched with the same volume and different dosage of drug liquid or tragacanth liquid, once a day, lasting 3 days. 1 hour after the final administration, 2% croton oil mixure of 0.02 ml was embrocated uniformly on the both sides of left ears of mice, and after 4 hours, the mice were snapped off its cervical vertebra and put to death. The left and right ears were cut down, then inflammatory and control ears were weighted by certain means. Difference of weight between left and right ears was the swelling extent of ears, results showing in table 11.

[11] = test system: PCA in rat; assay: Passive cutis anaphylactic reaction (PCA); format: in vivo; settings: 0.1 g/kg
Description: The rats were injected with the egg albumn at 10 mg/kg in the muscle. At the same time, all the rats were injected with 2×10^10 (0.2 ml) bordetella pertussis in the abdominal cavity for sensitization. 2 weeks later, all the rats were killed to sample the blood. All the blood samples were separated for preparing the serum.
60 rats, 150˜200 g, half male and half female, were divided into 6 groups at random. In the light narcosis condition induced by aether, each rat was cut the fleece in the back and injected with the 2 concentrations of anti-egg-album serum 0.1 ml under the skin at the fairless place. The serums were diluted on the rates of 1:5(d1) and 1:10(d2) before the experiment. 48 hours later, all the rats were attacked by intravenous injecting the 0.5% evans blue normal saline solution 1 ml which containing 1 mg egg albumin. 20 minutes later, the rats were killed by decapitation. The rats' back skin were dissected and turned over. According to the dark and light and area of the blue stains exudated from the vessels, all the rats were evaluated by several people. The skin stained by the evens blue were scissored and soaked in 5 ml 0.1% sodium sulfate acetone (7:3) solution for 48 hours. Then it was centrifugated to separate the supernatant liquor. The supernates were measured the optical density at the wavelength 590 nm to calculate the degree of the PCA reaction and the inhibiting percent.

C[C@]12C=CC(=O)C=C1CC[C@@H]1[C@@H]2C(=O)C[C@@]2(C)[C@H]1CC[C@]2(O)C(=O)CO [prednisone]
BW at 1 month later [1]: 244 ± 31 g | BW change [1]: -21 g | Initiative BW [1]: 264 ± 55 g | Organ index [(organ weight/body weight)/100] Liver [2]: 3.52 ± 0.35 | Organ index [(organ weight/body weight)/100] Spleen [2]: 0.28 ± 0.047 | Organ index [(organ weight/body weight)/100] Thymus [2]: 0.05 ± 0.011 | Organ index [(organ weight/body weight)/100] adrenal gland [2]: 0.02 ± 0.0043 | Organ index [(organ weight/body weight)/100] Liver ([3]; 0.01 g/kg): 3.04 ± 0.20 | Organ index [(organ weight/body weight)/100] Spleen ([3]; 0.01 g/kg): 0.32 ± 0.08 | Organ index [(organ weight/body weight)/100] Thymus ([3]; 0.01 g/kg): 0.050 ± 0.060 | Organ index [(organ weight/body weight)/100] adrenal gland ([3]; 0.01 g/kg): 0.020 ± 0.004 | atrophy of the thymus and adrenal gland ([3]; AA rats, tables 1.4 and 1.7): atrophied | Swelling degree, left anklejoint and foot ([4]; 1 d): 1.78 ± 0.51 Δcm | Swelling degree, left anklejoint and foot ([4]; 2 d): 1.70 ± 0.51 Δcm | Swelling degree, right anklejoint and foot ([4]; 2 d): 0.10 ± 0.13 Δcm | Swelling degree, left anklejoint and foot ([4]; 4 d): 1.63 ± 0.50 Δcm | Swelling degree, right anklejoint and foot ([4]; 4 d): 0.15 ± 0.28 Δcm | Swelling degree, left anklejoint and foot ([4]; 6 d): 1.58 ± 0.50 Δcm | Swelling degree, right anklejoint and foot ([4]; 6 d): 0.11 ± 0.25 Δcm | Swelling degree, left anklejoint and foot ([4]; 8 d): 1.27 ± 0.46 Δcm | Swelling degree, right anklejoint and foot ([4]; 8 d): −0.08 ± 0.34 Δcm | Swelling degree, left anklejoint and foot ([4]; 10 d): 1.09 ± 0.54 Δcm | Swelling degree, right anklejoint and foot ([4]; 10 d): −0.13 ± 0.28 Δcm | Swelling degree, left anklejoint and foot ([4]; 12 d): 0.94 ± 0.50 Δcm | Swelling degree, right anklejoint and foot ([4]; 12 d): −0.26 ± 0.36 Δcm | Swelling degree, left anklejoint and foot ([4]; 14 d): 0.94 ± 0.42 Δcm | Swelling degree, right anklejoint and foot ([4]; 14 d): −0.33 ± 0.39 Δcm | Swelling degree, left anklejoint and foot ([5]; 1 d): 0.64 ± 0.14 Δcm | Swelling degree, left anklejoint and foot ([5]; 2 d): 0.64 ± 0.16 Δcm | Swelling degree, left anklejoint and foot (Table 1.2) ([5]; 2 d): 0.20 ± 0.06 Δcm | Swelling degree, left anklejoint and foot ([5]; 3 d): 0.50 ± 0.26 Δcm | Swelling degree, left anklejoint and foot ([5]; 9 d): 0.46 ± 0.25 Δcm | Swelling degree, left anklejoint and foot (Table 1.2) ([5]; 9 d): 0.08 ± 0.08 Δcm | Swelling degree, left anklejoint and foot ([5]; 12 d): 0.72 ± 0.46 Δcm | Swelling degree, left anklejoint and foot (Table 1.2) ([5]; 12 d): 0.21 ± 0.16 Δcm | Swelling degree, left anklejoint and foot ([5]; 14 d): 0.87 ± 0.46 Δcm | Swelling degree, left anklejoint and foot (Table 1.2) ([5]; 14 d): 0.44 ± 0.43 Δcm | Swelling degree, left anklejoint and foot ([5]; 16 d): 1.28 ± 0.69 Δcm | Swelling degree, left anklejoint and foot (Table 1.2) ([5]; 16 d): 0.99 ± 0.63 Δcm | Swelling degree, left anklejoint and foot (Table 1.2) ([5]; 18 d): 0.84 ± 0.74 Δcm | Swelling degree, left anklejoint and foot ([5]; 20 d): 1.03 ± 0.67 Δcm | Swelling degree, left anklejoint and foot (Table 1.2) ([5]; 20 d): 0.82 ± 0.72 Δcm | Swelling degree, left anklejoint and foot ([5]; 22 d): 1.05 ± 0.69 Δcm | Swelling degree, left anklejoint and foot (Table 1.2) ([5]; 22 d): 0.79 ± 0.74 Δcm | Swelling degree, left anklejoint and foot ([5]; 24 d): 0.90 ± 0.64 Δcm | Swelling degree, left anklejoint and foot (Table 1.2) ([5]; 24 d): 0.75 ± 0.67 Δcm | Swelling degree, left anklejoint and foot ([5]; 26 d): 0.86 ± 0.65 Δcm | Swelling degree, left anklejoint and foot (Table 1.2) ([5]; 26 d): 0.68 ± 0.64 Δcm | Swelling degree, left anklejoint and foot ([5]; 28 d): 0.85 ± 0.59 Δcm | Swelling degree, left anklejoint and foot (Table 1.2) ([5]; 28 d): 0.71 ± 0.67 Δcm

C[C@@H]1C[C@H]2[C@@H]3CCC4=CC(=O)C=C[C@]4(C)[C@@]3(F)[C@@H](O)C[C@]2(C)[C@@]1(O)C(=O)CO [cortisumman]
Percent of ear swelling [6]: 13.93 ± 4.41 | Percent of inhibition [6]: 59.3%

C[C@@H]1C[C@H]2[C@@H]3CCC4=CC(=O)C=C[C@]4(C)[C@@]3(F)[C@@H](O)C[C@]2(C)[C@@]1(O)C(=O)CO [dexamethasone]
Tincture exudation ([7]; 4 h): 0.085 ± 0.045 OD | Tincture exudation ([7]; 32 h): 0.063 ± 0.017 OD | Leakage of the tincture [8]: 0.11 ± 0.07 OD | Percent of phagocytosis [9]: 8.33 ± 10.13 % | phagocytosis index [9]: 1.10 ± 0.18 | Degree of ears' swelling [10]: 14.13 ± 5.75 mg | inhibition at 3 mg/kg ([10]; Mus musculus, 72 h, read-out: inhibition rate): 68.2%

CN1CCC(=C2c3ccccc3CC(=O)c3sccc32)CC1 [Ketotifen]
PCA absorbancy ([11]; serum d1 (1:5)): 0.033 ± 0.024 | PCA value ([11]; serum d1 (1:5)): 2.78 ± 1.64 | PCA absorbancy ([11]; serum d2 (1:10)): 0.027 ± 0.019 | PCA value ([11]; serum d2 (1:10)): 0.67 ± 1.41
